Laboratory results taken from patent US11980612B2, “Synergistic anti-inflammatory compositions” (The Procter & Gamble Company, priority 2020, dated 2024).
Values joined by “and” are separate entries in the source; they are usually repeats but may differ in a detail not shown here. Equal values may be shown once.

Columns and labels:
[1] = system: PGE2 release from TERT keratinocytes (tKC); assay: PGE2 assay: inhibition of PGE2 release from UVB-stressed TERT keratinocytes, normalized to ATP; format: cell-based, human; settings: PO 1 × 10−7 w/v %, actives alone or combination (observed), 15 mJ/cm2 UVB, 18-24 hours
Text: Inhibiting the Cell's Inflammation Response to a Stressor-Prostaglandin E2 (“PGE2”) Assay.
PGE2 is a hormone-like substance that is known to participate in modulation of inflammation. Cellular inflammation is associated with a variety of hair, skin and scalp conditions, and thus inhibiting PGE2 activation vis-à-vis cellular inflammation may help treat these types of hair, skin and scalp conditions.
TERT keratinocytes (“tKC” are human keratinocytes which have been transfected with the human telomerase reverse transcriptase gene to immortalize the cells) were obtained from Jerry Shay, University of Texas, Southwestern and plated at 40,000 cells/well into 24-well plates in 1 ml/well volume. EpiLife Medium (Life Technologies cat #MEPICFPRF500) supplemented with keratinocyte growth supplement (Life technologies cat #S-001-5) was used as the assay media. The cells were grown to confluence/near confluence, (typically 24 hours after plating 40,000 cells/well in 24 well plate) and then subjected to 15 mJ/cm^2 UVB-stress (typically […] in BioSun). The test compositions (strobilurins, piroctone olamine, strobilurins+piroctone olamine, and positive control 10 uM idebenone) were added to replace the medium (EpiLife Medium with 0.1% final concentration of DMSO—briefly, 1000× stocks of actives and combinations made in 100% DMSO and diluted into Epilife media 1 to 1000), and the plates were incubated for 18-24 hours.
The supernatant is removed from each well, and the cells are rinsed with 2 ml/well medium (without supplements). A Cell Titer-Glo assay (Promega cat #G7571; Madison WI) is used to measure ATP activity, is conducted on the cells for normalization. The supernatant is tested in a PGE2 assay (Prostaglandin E2 Assay kit from Cisbio Bioassays cat #62P2APEB) according to the manufacturer's instructions. The PGE2 results are normalized to ATP activity. The PGE2 quantitation (pg/mL) from the supernatant is divided by the normalization factor (treatment ATP/control ATP).
Example Calculation to Compute PGE2 Inhibition by Strobilurin: • Luminescence of vehicle control in ATP assay=704567 • Luminescence of strobilurin treatment in ATP assay=678903 • Normalization factor for strobilurin treatment=1.038 • PGE2 quantitation for vehicle control=2458 pg/mL PGE2 • PGE2 quantitation for strobilurin treatment=2347 pg/mL PGE2 • Normalized PGE2 values • control=2458/1=2458 • strobilurin=2347/1.038=2261 • % inhibition for strobilurin=[100×(2458−[…])/2458]=8%
Student's T-Test (equal variance, 2 sided) are used to calculate p-values between observed combinations and expected combinations with p-value<0.05 considered statistically significant. Expected combination values are calculated by adding the PGE2 inhibition values of strobilurins alone and piroctone olamine alone. Synergy factor is simply the ratio of observed combination/expected combination. Synergy factors greater than 1.0 with a p-value<0.05 are deemed synergistic.

[2] = general statement, no method; cited from earlier work
[3] = strobilurin 1 × 10−7 w/v %, strobilurin:PO ratio 1:1
[4] = strobilurin 1 × 10−8 w/v %, strobilurin:PO ratio 1:10
[5] = strobilurin 1 × 10−9 w/v %, strobilurin:PO ratio 1:50
[6] = strobilurin 4 × 10−7 w/v %, strobilurin:PO ratio 4:1

Structure (SMILES)	% PGE2 Inhibition [1, 3] [%]	% PGE2 Inhibition [1, 4] [%]	% PGE2 Inhibition [1, 5] [%]	% PGE2 Inhibition [1, 6]	solubility in water [2]
CNC(=O)/C(=N/OC)c1ccccc1COc1cc(C)ccc1C [dimoxystrobin]	18.9	7.6	4.1	12.4%	–
CO/N=C(/C(=O)OC)c1ccccc1COc1ccccc1C [kresoxim methyl]	4.1	7.3	3.2	6.7%	–
CO/N=C(/C1=NOCCO1)c1ccccc1Oc1ncnc(Oc2ccccc2Cl)c1F [fluoxastrobin]	5.6	3.3	1	8.6%	–
CON=C(C(=O)OC)c1ccccc1CON=C(C)c1cccc(C(F)(F)F)c1 [trifloxystrobin]	3.2	0.5	0.7	8.3%	–
CO/C=C(/C(=O)OC)c1ccccc1COc1cccc(C(F)(F)F)n1 [picoxystrobin]	2.5	8.4	8.9	16.7%	–
Cc1cc(CC(C)CC(C)(C)C)n(O)c(=O)c1.NCCO (stereo not drawn) [PO, piroctone olamine]	3.2	2.6	2.4	2.8% and 2.2%	–
CO/C=C(/C(=O)OC)c1ccccc1Oc1cc(Oc2ccccc2C#N)ncn1 [azoxystrobin]	8	1	1	13%	low solubility in water
CNC(=O)/C(=N/OC)c1ccccc1CO/N=C(C)/C(=N/OC)C(/C)=N/OC [orysastrobin]	8.2	15.6	1.1	4.7%	–
